{"source": "paper PMC7439407", "about": "(Science Advances, 2020)", "molecular_target": "arginine repressor ArgR", "experiment": "SPR", "type": "binding, Staphylococcus aureus", "note": "pKd: −log10 of the molar value."}
{"smiles": "O=c1oc2ccccc2c(O)c1C(c1ccc(Cl)c(Cl)c1)c1c(O)c2ccccc2oc1=O", "note": "[DCH, 3,3′-(3,4-dichlorobenzylidene)-bis-(4-hydroxycoumarin)]", "values": [{"measurement": "pKd", "value": 7.09}]}
